Data set [1] concerns P. acnes (ATCC 6919). Put plainly: Minimum Inhibitory Concentration (MIC) determination, microbroth dilution. The data set is classed as cell-based, Propionibacterium acnes. The conditions noted are these: API alone, 48 h anaerobic, ≥90% reduction in growth (OD600); for MIC: Cutibacterium acnes, ATCC6919, read-out: individual MIC. On the procedure: P. acnes (ATCC 6919) was cultured on Brucella plates supplemented with 0.1 g/L hemin, 0.01 g/L vitamin K, and 5% (v/v) defibrinated sheep's blood at 37° C. under anaerobic conditions using a Gas-Pak (BD). For each assay, an inoculum of P. acnes was prepared by suspending a colony of P. acnes in 5 mL Reinforced Clostridium medium (RCM) and growing at 37° C. and 250 RPM under anaerobic conditions for 30 hours. […] Individual MIC values were determined for each drug according to the microbroth dilution method. […] Media without P. acnes and medium with P. acnes only were used for negative and positive controls, respectively, and contained the highest concentration of solvent used in each drug analysis. Plates were incubated under anaerobic conditions using a Gas-Pak (BD) for 48 hours at 37° C. Following incubation, each well was resuspended by pipetting and the optical density at 600 nm (OD600) was determined on a plate reader.

Data set [2] in a line: Testing of combination products in human subjects with acne. Conditions: spot treatment. From the text:
The Formulation 1 was applied using Acne Treatment Pads one or two times per day.

The test system of data set [3] is S. epidermidis (ATCC 12228). Put plainly: Fermentation of prebiotics by S. epidermidis. The data set is classed as cell-based, Staphylococcus epidermidis. Conditions: 2% prebiotic, six days anaerobic, compared to PBS control. On the procedure:
Preparation of Prebiotics: Glycerol, sucrose, β-lactose, and D-(+)-maltose were purchased from Sigma-Aldrich. Stock solutions of each prebiotic (4% w/v) were prepared in water and filtered through a 0.22 μm filter for sterilization.
Preparation of S. epidermidis conditioned media: S. epidermidis (ATCC 12228) was cultured on trypic soy broth (TSB) agar plates at 37° C. For each assay, an inoculum of S. epidermidis was prepared by suspending one colony of S. epidermidis from a TSB agar plate into 7 ml of TSB broth and growing at 37° C., 215 RPM for 16 hours. The overnight culture was subcultured by adding 100 μl of overnight culture to 10 ml of fresh TSB. Once mid-log phase was reached, the cells were pelleted by centrifugation, washed with PBS and resuspended in fresh PBS. In 15 ml culture tubes, 4.9 ml of Rich Broth (20 g/L yeast extract, 6 g/L TSB) was combined with 40 μl 0.5% phenol red indicator, 5 ml of 4% prebiotic (glycerol, sucrose, β-lactose, or D-(+)-maltose) or PBS as a control, and S. epidermidis (10^5 CFU/ml) and placed in an anaerobic Gas-Pak (BD). The cultures were incubated at 37° C., 215 RPM for 6 days. Following fermentation, the cells were pelleted and the supernatants were filtered through a 0.22 μm filter for sterilization.
No change in color occurred in PBS control (a).

Data set [4] concerns P. acnes 6919. Put plainly: Time-kill assay. The data set is classed as cell-based, Propionibacterium acnes. Conditions: DRM1 30 mM or salicylic acid […] mM alone (2× MIC); combination […] + […]; RCM broth with 12% propylene glycol.
For data set [5], the system named is P. acnes strains RMA#20660 and RMA#20661. Put plainly: MIC against multi-resistant P. acnes strains. The data set is classed as cell-based, Propionibacterium acnes. On the procedure:
Individual MIC values were determined for each drug according to the microbroth dilution method. Briefly, 2-fold serial dilutions of each drug (50 μl) were added to wells in a 96-well plate followed by 50 μl of the prepared P. acnes inoculum as described in Example 1. Media without P. acnes and medium with P. acnes only were used for negative and positive controls, respectively, and contained the highest concentration of solvent used in each drug analysis. Plates were incubated under anaerobic conditions using a Gas-Pak (BD) for 48 hours at 37° C. Following incubation, each well was resuspended by pipetting and the optical density at 600 nm (OD600) was determined on a plate reader.

The test system of data set [6] is biofilm-forming strains. The text has this:
Biofilm formation is an important factor in P. acnes pathogenicity and biofilm is detected in approximately half of hair follicles of acne patients.

Data set [7] concerns P. acnes. Conditions: serial passage, 10 cycles of 72 hours, method written in future tense. The text has this: Resistance development may be measured by two methods: single step for the determination of spontaneous frequency of resistance development and serial passage for the determination of progressive resistance development.

SMILES strings stand for the structures. Values after ≈ are worked out from the molar mass of the structure shown. Like-named read-outs stand apart in the source and are kept apart here.

`O=C(O)CCCCCCCC(=O)O` [Azelaic acid, azelaic acid, reference compound]: in data set [1] (P. acnes ATCC 6919), the MIC (usually the least concentration at which growth counts as inhibited) came out at 7.5 mM.
Consider `O=C(OOC(=O)c1ccccc1)c1ccccc1` [BPO, benzoyl peroxide, reference compound], for which, in data set [1] (P. acnes 6919), the “individual MIC” value was determined as 125 µg/mL and the MIC is 125 µg/mL. Further, the “hyperpigmentation (dark spot side effect)” value in data set [2] is reported as “dark spot side effect observed”.
For the compound `CCC[C@@H]1C[C@@H](C(=O)N[C@@H]([C@H]2O[C@H](SC)[C@H](O)[C@@H](O)[C@H]2O)[C@H](C)Cl)N(C)C1` [Clindamycin, clindamycin, reference compound], the minimum inhibitory concentration (MIC) in data set [1] (P. acnes 6919) was 0.063 µg/mL.
With `OC[C@H]1O[C@H](O[C@H]2[C@H](O)[C@@H](O)[C@H](O)O[C@@H]2CO)[C@H](O)[C@@H](O)[C@@H]1O` [D-(+)-maltose], in data set [3], the “acidification of media (phenol red colour) by S. epidermidis fermentation” value (from here on “acidification of media”) was “change of color from red to yellow”.
`O=C(O)CCC(=O)O` [DRM1, succinic acid]: the “individual MIC” value in data set [1] (P. acnes 6919) worked out at 1771 µg/mL; in data set [1] (P. acnes ATCC 6919), 15 mM. For the same compound, the minimum inhibitory concentration (MIC) worked out at 1770 µg/mL in data set [1] (P. acnes 6919); 15 mM in data set [1] (P. acnes ATCC 6919); 15 mM (≈ 1770 µg/mL) in data set [5] (Cutibacterium acnes, each of RMA#20660 and RMA#20661 (resistant to erythromycin, clindamycin, minocycline, doxycycline), ≥90% decrease in growth, OD600). In data set [4], the “growth on plate after 15 minutes” value was “growth was evident”. Besides, the “bactericidal activity against antibiotic-resistant P. acnes strains” value in data set [5] (RMA#20660 and RMA#20661) was “bactericidal”. For the same compound, the “concentration preventing biofilm formation” value in data set [6] is reported as at least 7.5 mM. Moreover, the “spontaneous or progressive resistance development” value in data set [7] is listed as “did not develop spontaneous or progressive resistance”.
`O=C(O)c1ccccn1` [Picolinic acid, picolinic acid]: the minimum inhibitory concentration (MIC) in data set [1] (P. acnes ATCC 6919) came out at 1.88 mM.
In the case of `O=C(O)c1ccccc1O` [Salicylic Acid, salicylic acid, reference compound], the minimum inhibitory concentration (MIC) in data set [1] (P. acnes ATCC 6919) stood at 7.5 mM. In addition, in data set [4], the “growth on plate after 15 minutes” value was “growth was evident”.
As for `OCC(O)CO` [glycerol], the “acidification of media” value in data set [3] was “change of color from red to yellow”.
In the case of `OC[C@H]1O[C@@](CO)(O[C@H]2O[C@H](CO)[C@@H](O)[C@H](O)[C@H]2O)[C@@H](O)[C@@H]1O` [sucrose], the “acidification of media” value in data set [3] is given as “change of color from red to yellow”.
Regarding `OC[C@H]1O[C@@H](O[C@H]2[C@H](O)[C@@H](O)[C@H](O)O[C@@H]2CO)[C@H](O)[C@@H](O)[C@H]1O` [β-lactose], the “acidification of media” value in data set [3] was “change of color from red to yellow”.

(Values after US11666586B2, “Compositions and methods for treating acne vulgaris” (Dermala, Inc., priority 2016, dated 2023).)
